Results published in US10450549B2, “Aryloxyphenoxypropionate tolerance in turfrgass species and use of AAD1 as a selectable marker” (Dow AgroSciences, LLC, priority 2004, dated 2019).

Key:
[1] = molecular target: AAD2 (v1) (Bradyrhizobium diazoefficiens, UniProt Q89UC4); assay: Colorimetric phenol assay of AAD2 (v1) E. coli extract / partially purified enzyme; format: biochemical, Bradyrhizobium japonicum
[2] = system: non-transformed (NT) ‘Shamrock’ Kentucky bluegrass; assay: Haloxyfop-R-methyl on non-transformed Kentucky bluegrass controls; format: in vivo; conditions: similar treatment regimes
Procedure: (§1) The selected T0 plants were sprayed with haloxyfop-R-methyl (Gallant Super®, DOW AGROSCIENCES, INC.) at rates ranging from 140 to 560 g ae/ha. […] This rate would also control susceptible monocot weed species. Measured amounts were placed individually in 25 mL glass vials and dissolved in a 12 mL volume of 1.0% (v/v) Agri-Dex® Crop Oil Concentrate (COC).
(§2) Spray solutions were applied to the plant material with an overhead Mandel™ track sprayer equipped with a 8002E nozzles calibrated to deliver 187 L/ha over an application area of 0.503 square meters (m^2) at a spray height of 18 inches (46 cm) above average plant canopy height. Control plants were sprayed in the same manner with the COC blank.
(§3) The treated plants and control plants were placed in a greenhouse and watered by sub-irrigation to prevent wash-off of the test compounds. At various times after application, the condition of the test plants as compared with that of the untreated plants was determined visually and scored on a scale of 0 to 100 percent, where 0 corresponds to no injury or growth inhibition, and 100 corresponds to complete kill. Regenerated, non-transformed (NT) ‘Shamrock’ Kentucky bluegrass plants and/or seed-derived clonally propagated plants served as haloxyfop sensitive controls.

[3] = system: Agrostis palustris var. Pencross; assay: Bentgrass plate test bioassay for herbicide degradation; format: in vivo; conditions: AAD1 (v1) extract
Procedure: Because of the selective nature of the herbicides being tested (i.e., monocot plants controlled by AOPP herbicides and dicot plants controlled by auxinic herbicides), wildtype Agrostis palustris var. Pencross and Arabidopsis thaliana var. Columbia were used as monocot and dicot test species, respectively. Each species is amenable to germination and growth in small Petri dishes.
Twenty to thirty sterilized seeds for each test species used were added onto a sterile, solidified agar Plate Test Medium (PTM) [2.5 mM KNO3, 2.5 mM KH2PO4, […], 10 mM NaEDTA (pH 8.0), 2 mM MgSO4, 2 mM Ca(NO3) 2, 70 μM H3BO3, 14 μM MnCl2, 0.5 μM CuSO4, 1 μM ZnSO4, 0.2 μM NaMoO4.2H2O, 10 μM NaCl, 10 nM CoCl2.H2O, 0.8% (w/v) sucrose, 0.4% agarose (w/v)] for bioassay in 60×15-mm Petri dishes (Falcon 1007). PTM was additionally modified by adding up to six rates of test herbicide standards or herbicide-enzyme test solution dilutions such that the four-fold concentration increments covered a rate range of three orders of magnitude with the GR50 rate (50% growth reduction) approximately in the center of the range.
For herbicide-enzyme test solutions, the maximal concentration was determined based on the nominal concentration before any subsequent enzymatic degradation would occur. Seeds were evenly spread by adding 3 ml of melted PTM of the same composition, swirling, and allowing to solidify. Plates were sealed and maintained under sterile conditions in a low light growth chamber (24 h day^−1, 100 μE/m^2s^1, 23° C.) for 7 days. Root length or root+shoot length were measured for five randomly chosen Arabidopsis and bentgrass plants, respectively, average mean length (percent of untreated control) vs. nominal herbicide concentration and GR50 determined.

[4] = system: AAD1-transformed T0 ‘Shamrock’ Kentucky bluegrass events; assay: Haloxyfop-R-methyl postemergence on AAD1 (pDAB3878) T0 Shamrock Kentucky bluegrass, visual % injury; format: in vivo; conditions: for injury of event KGB51: 560 g ae/ha
Procedure: ‘Shamrock’ Kentucky bluegrass T0 pDAB3878 events were maintained vegetatively through division of the crowns and replanting the clonal pieces into fresh growth medium. Clonally propagated plants were maintained by periodic “mowing” of vegetative tissues.
A growth medium was prepared by mixing Promix® and sand in a 2 to 1 ratio. The medium was contained in plastic pots with a surface area of 84.6 square centimeters (cm^2). When required to maintain plant health, a fungicide, insecticide, and/or other chemical or physical treatment was applied to stock plants. The plants were maintained in a greenhouse with an approximate 14 hour photoperiod which was maintained at 24-27° C. during the day and 22-25° C. during the night. Nutrients (Peters Excel® 15-5-15 5-Ca 2-Mg and iron chelate) were applied in the irrigation solution as needed and water was added on a regular basis. Supplemental lighting was provided with overhead metal halide 1000-Watt lamps when PAR dropped below 500.
as §1, §2, §3

[5] = system: pDAS1421 T0 corn; assay: Whole plant quizalofop screening of T0 corn lineages containing AAD1 (v3) and AHAS (pDAS1421); format: in vivo; conditions: number of lineages
Procedure: Seventy-two Agrobacterium-transformed events were selected on various levels of R-haloxyfop acid and R-cyhalofop acid in vitro. Twenty-two callus samples were analyzed by Southern blot analysis for stable integration of AAD1 (v3) into the genome as described previously.
A minimum six regenerated clonal lineages per event were moved to soil in the greenhouse and screened using a track sprayer as previously described to apply 35 g ae/ha quizalofop when 2-4 new, normal leaves had emerged (see section 8.3.3). Presence of AAD1 protein on a Western blot correlated perfectly with herbicide resistance in the T0 generation regardless of which AOPP herbicide was used for selection. There is no negative impact of the second HTC gene (AHAS) on the function of the AAD1 (v3).

[6] = system: AAD1 (v3) rice plantlets; assay: Rice tolerance testing with Assure II (sensitivity or resistance 10-14 DAT); format: in vivo, Oryza sativa L. japonica cv. Taipei 309; conditions: 140 g ae/ha
Procedure: This concentration corresponds to approximately 140 g ae/ha. Each plant was spayed in a fume hood at a distance of 8-12 inches with 6 full squirts of the sprayer directed so that the entire plant was covered with an equal portion of herbicide. Each squirt delivered approximately 100 μl solution to the plantlet. Once sprayed, plantlets were allowed to dry for one hour before being moved out of the fume hood.

O=C(O)COc1ccc(Cl)cc1Cl [2,4-D, 2,4-dichlorophenoxyacetic acid]
Vmax (A510 units) ([1]; AAD2 (pDAB3202), MOPS pH 6.75): 0.86 A510 units
apparent Vmax, AAD2 (v1) ([1]; partially purified enzyme): 0.86 A510 units

CC(Oc1ccc(Oc2ncc(C(F)(F)F)cc2Cl)cc1)C(=O)O (stereo not shown) [haloxyfop]
injury of control, non-transgenic plants [2]: 60-100%
herbicidal activity after AAD1 (v1) treatment, bentgrass plate bioassay [3]: loss of herbicidal activity
mean injury, pDAB3878 Shamrock Kentucky bluegrass events ([4]; 140 and 560 g ae/ha, 11, 14 and 20 DAA): less than 15%
injury of event KGB51 ([4]; 11 DAA): about 20%
injury of event KGB51 ([4]; 14 DAA): ~30%
injury of event KGB51 ([4]; 20 DAA): ~30%

C[C@@H](Oc1ccc(Oc2cnc3cc(Cl)ccc3n2)cc1)C(=O)O [quizalofop]
Assessment of T0 lineages resistant to 35 g ae/ha quizalofop: Resistant ([5]; event 1421[3]-036): 8
Assessment of T0 lineages resistant to 35 g ae/ha quizalofop: Sensitive ([5]; event 1421[3]-036): 0
Assessment of T0 lineages resistant to 35 g ae/ha quizalofop: Resistant ([5]; event 1421[4]-031): 9
Assessment of T0 lineages resistant to 35 g ae/ha quizalofop: Sensitive ([5]; event 1421[4]-031): 0
Assessment of T0 lineages resistant to 35 g ae/ha quizalofop: Resistant ([5]; event 1421[4]-032): 8
Assessment of T0 lineages resistant to 35 g ae/ha quizalofop: Sensitive ([5]; event 1421[4]-032): 0
Assessment of T0 lineages resistant to 35 g ae/ha quizalofop: Resistant ([5]; event 1421[4]-033): 12
Assessment of T0 lineages resistant to 35 g ae/ha quizalofop: Sensitive ([5]; event 1421[4]-033): 0
Assessment of T0 lineages resistant to 35 g ae/ha quizalofop: Resistant ([5]; event 1421[4]-034): 8
Assessment of T0 lineages resistant to 35 g ae/ha quizalofop: Sensitive ([5]; event 1421[4]-034): 0
Assessment of T0 lineages resistant to 35 g ae/ha quizalofop: Resistant ([5]; event 1421[4]-035): 6
Assessment of T0 lineages resistant to 35 g ae/ha quizalofop: Sensitive ([5]; event 1421[4]-035): 0
Assessment of T0 lineages resistant to 35 g ae/ha quizalofop: Resistant ([5]; event 1421[21]-016): 8
Assessment of T0 lineages resistant to 35 g ae/ha quizalofop: Sensitive ([5]; event 1421[21]-016): 0
Assessment of T0 lineages resistant to 35 g ae/ha quizalofop: Resistant ([5]; event 1421[22]-020): 8
Assessment of T0 lineages resistant to 35 g ae/ha quizalofop: Sensitive ([5]; event 1421[22]-020): 0
Assessment of T0 lineages resistant to 35 g ae/ha quizalofop: Resistant ([5]; event 1421[22]-022): 8
Assessment of T0 lineages resistant to 35 g ae/ha quizalofop: Sensitive ([5]; event 1421[22]-022): 0
Assessment of T0 lineages resistant to 35 g ae/ha quizalofop: Resistant ([5]; event 1421[22]-023): 8
Assessment of T0 lineages resistant to 35 g ae/ha quizalofop: Sensitive ([5]; event 1421[22]-023): 0
Rating for sensitivity or resistance ([6]; Control rice plant): Dead
Rating for sensitivity or resistance ([6]; rice plant 63-1A): No injury
Rating for sensitivity or resistance ([6]; rice plant 63-1F): No injury
Rating for sensitivity or resistance ([6]; rice plant 63-4B): No injury
Rating for sensitivity or resistance ([6]; rice plant 63-4D): No injury
Rating for sensitivity or resistance ([6]; rice plant 63-6C): Dead
